# Source: US20160297763A1, “Heteroaryl hydroxamic acid derivatives and their use in the treatment, amelioration or prevention of a viral disease” (priority 2011, published 2016)
# Read-outs that look alike come from different tables or passages of the source.
# What was measured:
# [1] = biological target: PB2 cap binding domain (CBD) (Influenza A virus, UniProt Q9Q0V1); experiment: biochemical; set-up: species or system avian H5N1 influenza virus
# [2] = test system: influenza A virus A/Aichi/2/68 (H3N2); experiment: Cytopathic effect (CPE) assay H3N2; format: cell-based, influenza A virus (H3N2) on MDCK cells; conditions: for inhibition at 2 µM: H3N2, activity conc 2 (μM per method); for inhibition at 20 µM: H3N2, activity conc 20 (μM per method); for inhibition at 10 µM: H3N2, activity conc 10 (μM per method)
# Description: A possible measure of the […] antiviral activity of the compounds having the formula I or II is the CPE assay disclosed herein. […] In this connection, the reduction in the virus-mediated cytopathic effect (CPE) upon treatment with the compounds was calculated as follows: The cell viability of infected-treated and uninfected-treated cells was determined using an ATP-based cell viability assay (Promega). The response in relative luminescent units (RLU) of infected-untreated samples was subtracted from the response (RLU) of the infected-treated samples and then normalized to the viability of the corresponding uninfected sample resulting in % CPE reduction.
# The influenza A virus (IAV) was obtained from American Tissue Culture Collection (A/Aichi/2/68 (H3N2); VR-547). Virus stocks were prepared by propagation of virus on Mardin-Darby canine kidney (MDCK; ATCC CCL-34) cells and infectious titres of virus stocks were determined by the 50% tissue culture infective dose (TCID50) analysis as described in Reed, L. J., and H. Muench. 1938, Am. J. Hyg. 27:493-497.
# MDCK cells were seeded in 96-well plates at 2×10^4 cells/well using DMEM/Ham's F-12 (1:1) medium containing 10% foetal bovine serum (FBS), 2 mM L-glutamine and 1 antibiotics (all from PAA). Until infection the cells were incubated for 5 hrs at 37° C., 5.0 CO2 to form a ˜80% confluent monolayer on the bottom of the well. Each test compound was dissolved in DMSO and generally tested at 25 μM and 250 μM. In those cases where the compounds were not soluble at that concentration they were tested at the highest soluble concentration. The compounds were diluted in infection medium (DMEM/Ham's F-12 (1:1) containing 5 μg/ml trypsin, and 1% antibiotics) for a final plate well DMSO concentration of 1%. The virus stock was diluted in infection medium (DMEM/Ham's F-12 (1:1) containing 5 μg/ml Trypsin, 1% DMSO, and 1% antibiotics) to a theoretical multiplicity of infection (MOI) of 0.05.
# After removal of the culture medium and one washing step with PBS, virus and compound were added together to the cells. In the wells used for cytotoxicity determination (i.e. in the absence of viral infection), no virus suspension was added. Instead, infection medium was added. Each treatment was conducted in two replicates. After incubation at 37° C., 5% CO2 for 48 hrs, each well was observed microscopically for apparent cytotoxicity, precipitate formation, or other notable abnormalities. Then, cell viability was determined using CellTiter-Glo luminescent cell viability assay (Promega). The supernatant was removed carefully and 65 μl of the reconstituted reagent were added to each well and incubated with gentle shaking for 15 min at room temperature. Then, 60 μl of the solution was transferred to an opaque plate and luminescence (RLU) was measured using Synergy HT plate reader (Biotek).
# Relative cell viability values of uninfected-treated versus uninfected-untreated cells were used to evaluate cytotoxicity of the compounds. Substances with a relative viability below 80% at the tested concentration were regarded as cytotoxic and retested at lower concentrations.
# Reduction in the virus-mediated cytopathic effect (CPE) upon treatment with the compounds was calculated as follows: The response (RLU) of infected-untreated samples was subtracted from the response (RLU) of the infected-treated samples and then normalized to the viability of the corresponding uninfected sample resulting in % CPE reduction.
# [3] = Influenza A virus, H3N2, activity conc 50 (μM per method), read-out: CPE H3N2 reduction (%)
# [4] = Influenza A virus, H3N2, read-out: CPE H3N2 IC50
# [5] = Influenza A virus, read-out: CPE H3N2 reduction (%)
# Chain of PB2 cap binding domain (CBD) (Q9Q0V1 318-483 limits assumed): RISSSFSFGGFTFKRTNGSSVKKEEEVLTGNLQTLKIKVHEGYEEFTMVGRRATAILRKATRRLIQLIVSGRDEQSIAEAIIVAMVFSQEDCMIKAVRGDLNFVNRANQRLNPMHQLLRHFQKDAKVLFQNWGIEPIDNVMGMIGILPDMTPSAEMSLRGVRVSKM
compound,measurement,setting,value
Cc1c(-c2ccc(F)cc2)sc2nc(N)[nH]c(=O)c12 [SAV-7601],Kd,[1],1.1 µM
same,inhibition at 50 µM,[2]; [3],69.2%
Cc1c(-c2ccc(Cl)cc2F)sc2nc(N)[nH]c(=O)c12 [SAV-7618],Kd,[1],0.65 µM
same,inhibition at 50 µM,[2]; [3],77.4%
same,IC50,[2]; [4],43 µM
Nc1nc2sc(-c3ccccc3)c(Br)c2c(=O)[nH]1 [SAV-7631],Kd,[1],0.66 µM
same,inhibition at 5 µM,"[2]; Influenza A virus, H3N2, read-out: CPE H3N2 reduction (%), activity conc 5 (μM per method)",4%
Cc1c(-c2cccc(C(F)(F)F)c2)sc2nc(N)[nH]c(=O)c12 [SAV-7581],Kd,[1],1.4 µM
same,inhibition at 50 µM,[2]; [3],87.8%
same,IC50,[2]; [4],17 µM
Cc1c(-c2ccccc2F)sc2nc(N)[nH]c(=O)c12 [SAV-7598],Kd,[1],3.7 µM
same,inhibition at 2 µM,[2]; [5],11.4%
Nc1nc2sc(-c3ccccc3)c(Cl)c2c(=O)[nH]1 [SAV-7639],Kd,[1],1.8 µM
same,inhibition at 50 µM,"[2]; Influenza A virus, H3N2, read-out: CPE H3N2 reduction (%), activity conc 50 (μM per method)",59.9%
Cc1c(-c2cccc(C(N)=O)c2)sc2nc(N)[nH]c(=O)c12 [SAV-7599],Kd,[1],5.3 µM
same,inhibition at 20 µM,[2]; [5],-0.7%
Cc1c(-c2ccccc2)sc2nc(NCCN(C)C)[nH]c(=O)c12 [SAV-7583],Kd,[1],68 µM
Nc1nc2sc(-c3ccccc3)cc2c(=O)[nH]1 [SAV-7549],Kd,[1],8.8 µM
same,inhibition at 50 µM,[2]; [3],-2.4%
Cc1c(-c2cccc(Cl)c2F)sc2nc(N)[nH]c(=O)c12 [SAV-7616],Kd,[1],3.1 µM
same,inhibition at 10 µM,[2]; [5],68.7%
same,IC50,[2]; [4],34 µM
Cc1c(-c2cccnc2)sc2nc(N)[nH]c(=O)c12 [SAV-7589],Kd,[1],10 µM
same,inhibition at 50 µM,[2]; [3],63.1%
same,IC50,[2]; [4],27 µM
Cc1c(-c2ccc(Cl)cc2)sc2nc(N)[nH]c(=O)c12 [SAV-7579],Kd,[1],0.27 µM
same,inhibition at 20 µM,[2]; [5],11.3%
Cc1cccc(-c2sc3nc(N)[nH]c(=O)c3c2C)c1 [SAV-7607],Kd,[1],5.4 µM
same,inhibition at 2 µM,[2]; [5],-0.4%
Cc1ccc(-c2sc3nc(N)[nH]c(=O)c3c2C)cc1 [SAV-7585],Kd,[1],2 µM
same,inhibition at 2.5 µM,"[2]; Influenza A virus, H3N2, activity conc 2.5 (μM per method), read-out: CPE H3N2 reduction (%)",28.9%
same,IC50,[2]; [4],3.5 µM
Cc1c(-c2cccc(Cl)c2)sc2nc(N)[nH]c(=O)c12 [SAV-7580],Kd,[1],8.9 µM
same,IC50,"[2]; Influenza A virus, H3N2, read-out: CPE H3N2 IC50 [μM]",11 µM
same,CPE H3N2 reduction (%),[2]; activity conc 2 (μM per method),89.8%
CC(c1ccccc1)c1cc2c(=O)[nH]c(N)nc2s1 (stereo not drawn) [SAV-7604],Kd,[1],6.4 µM
same,inhibition at 20 µM,[2]; [5],-4.7%
COc1cc(-c2sc3nc(N)[nH]c(=O)c3c2C)ccc1Cl [SAV-7619],Kd,[1],1.1 µM
same,inhibition at 2 µM,[2]; [5],3.4%
Cc1c(-c2cnccn2)sc2nc(N)[nH]c(=O)c12 [SAV-7608],Kd,[1],5.7 µM
same,inhibition at 10 µM,[2]; [5],3.8%
Cc1c(Cc2ccccc2)sc2nc(N)[nH]c(=O)c12 [SAV-7521],Kd,[1],6 µM
same,inhibition at 25 µM,"[2]; Influenza A virus, H3N2, activity conc 25 (μM per method), read-out: CPE H3N2 reduction (%)",33.6%
Cc1c(-c2ccc(Cl)c(C#N)c2)sc2nc(N)[nH]c(=O)c12 [SAV-7602],Kd,[1],1.7 µM
same,inhibition at 20 µM,[2]; [5],67.9%
Cc1c(-c2ccccc2)sc2nc(NCCCO)[nH]c(=O)c12 [SAV-7582],Kd,[1],4.2 µM
same,inhibition at 50 µM,[2]; [3],53.1%
Cc1c(-c2ccccc2Cl)sc2nc(N)[nH]c(=O)c12,melting point,,334 to 336 °C
Cl.O=C(NO)c1cc(NS(=O)(=O)Cc2ccc(Cl)cc2)ccn1,melting point,,210 to 230 °C
Cc1c(-c2c(F)ccc(Cl)c2F)sc2nc(N)[nH]c(=O)c12 [SAV-7637],Kd,[1],1.1 µM
same,inhibition at 5 µM,"[2]; Influenza A virus, H3N2, activity conc 5 (μM per method), read-out: CPE H3N2 reduction (%)",1.5%
same,IC50,[2]; [4],18 µM
CN(O)C(=O)c1cc2ccccc2cn1,melting point,,110 to 115 °C
O=C(NOCc1ccccc1)c1ccc(-c2ccccc2)cn1,melting point,,155 to 160 °C
